Assay results as given in article PMC6096477, “Structure of a Talaromyces pinophilus GH62 arabinofuranosidase in complex with AraDNJ at 1.25 Å resolution” (Acta Crystallographica. Section F, Structural Biology …, 2018).

Molecular target: T1, Talaromyces pinophilus GH62 arabinofuranosidase (Talaromyces pinophilus, UniProt A0A2H5BN17)
T1 construct: single-module GH62 enzyme, secreted from Aspergillus oryzae; about 35 kDa; amino-terminal residue Ser24; chain traced 25-325; 2 subunits in asymmetric unit; no tag mentioned
Test: isothermal titration calorimetry
Format: binding

T1 sequence (A0A2H5BN17 entry or part of it): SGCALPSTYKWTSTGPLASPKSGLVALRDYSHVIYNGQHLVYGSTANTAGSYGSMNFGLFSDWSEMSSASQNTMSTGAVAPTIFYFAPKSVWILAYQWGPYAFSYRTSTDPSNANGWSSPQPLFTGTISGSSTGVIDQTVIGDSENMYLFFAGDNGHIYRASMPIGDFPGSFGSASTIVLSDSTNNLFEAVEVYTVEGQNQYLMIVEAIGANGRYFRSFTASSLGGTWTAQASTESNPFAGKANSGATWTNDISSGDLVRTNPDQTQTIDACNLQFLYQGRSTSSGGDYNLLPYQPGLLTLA

- Kd: 24 ± 0.4 µM
Structure (SMILES): OC[C@@H]1NC[C@H](O)[C@H]1O [AraDNJ, 1,4-dideoxy-l,4-imino-L-arabinitol]
